This is an account of results in EPA's ToxValDB 9.5 (doi:10.2903/j.efsa.2013.3147).

Each structure is given as a SMILES string.

In data set [1] the test system is Colinus virginianus.
Data set [2] concerns Canidae. Particulars: oral, Dog Other, clinical chemistry.
The test system of data set [3] is Anas platyrhynchos.
In data set [4] the test system is Rattus norvegicus.

As usually defined, the NOAEL is the highest dose or exposure tested at which no adverse effect was seen. As for `COc1cc(C)c(C(=O)c2c(OC)ncc(Cl)c2C)c(OC)c1OC` [Pyriofenone], the LC50 in data set [1] (acute, oral, diet, mortality) was more than 980 mg/kg-day; in data set [3] (short-term, oral, feed, mortality) it was more than 1290 mg/kg-day. Besides, the LD50 in data set [1] (acute, oral, mortality) was more than 2000 mg/kg-day; in data set [4] (acute, oral, mortality), more than 2000 mg/kg-day. Besides, the no-observed-adverse-effect level (NOAEL) in data set [1] (reproduction developmental, reproduction) is 94 mg/kg-day; in data set [2] (chronic, duration: 1 years) it was 13.7 mg/kg-day; in data set [2] (subchronic, duration: 90 days) it was 15 mg/kg-day; in data set [3] (reproductive, reproduction), 119 mg/kg-day; in data set [4] (chronic, duration: 2 years, hematological), 7.25 mg/kg-day; in data set [4] (reproduction developmental, hematological), 64.1 mg/kg-day. In data set [4] (subchronic, duration: 90 days, oral, organ weight), this compound returned an NOAEL of 17.9 mg/kg-day.
